The target in the assay is T1, human CB2R (Homo sapiens, UniProt P34972).
T1 construct: host or cells: CHO cells
T1 sequence (P34972 whole entry): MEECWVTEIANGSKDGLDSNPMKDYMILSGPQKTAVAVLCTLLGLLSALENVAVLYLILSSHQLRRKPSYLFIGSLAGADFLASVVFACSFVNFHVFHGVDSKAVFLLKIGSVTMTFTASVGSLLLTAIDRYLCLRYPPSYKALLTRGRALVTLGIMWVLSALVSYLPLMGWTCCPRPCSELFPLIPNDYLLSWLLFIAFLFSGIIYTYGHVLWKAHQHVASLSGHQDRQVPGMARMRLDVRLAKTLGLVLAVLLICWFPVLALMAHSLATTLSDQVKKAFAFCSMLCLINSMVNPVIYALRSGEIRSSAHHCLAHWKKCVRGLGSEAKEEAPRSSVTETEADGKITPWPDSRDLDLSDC
Kind of assay: CB2R mediated modulation of cAMP synthesis. Type of assay: cell-based. Conditions: found through the use of the above described assays (binding and cAMP); CHO cells expressing human CB2R, forskolin-stimulated cAMP. Put shortly: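 EC50 values reflect inhibition of cAMP made in response to 10 uM forskolin (with 1 mM IBMX, 0.25% BSA) over 30 min at 37 °C in human CB2R-expressing CHO cells. The window runs from forskolin alone to 1 uM CP55940; curves fitted with a four-parameter logistic model.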
Take `CC(C)(C(=O)Nc1nc(CN2CCCCC2)cs1)S(=O)(=O)c1ccc(Cl)cc1` [2-(4-Chloro-benzenesulfonyl)-2-methyl-N-(4-piperidin-1-ylmethyl-thiazol-2-yl)-propionamide]: the agonistic activity entry is “agonistic activity”.
Then `CC(C)(C)c1cc(NC(=O)C(C)(C)S(=O)(=O)c2ccc(Cl)cc2)ccn1` [N-(2-tert-butylpyridin-4-yl)-2-[(4-chlorophenyl)sulfonyl]-2-methylpropanamide], with “agonistic activity”; and `Cc1ccc(S(=O)(=O)C(C)(C)C(=O)Nc2cc(C(C)(C)C)no2)cc1` [N-(3-tert-Butyl-isoxazol-5-yl)-2-methyl-2-(toluene-4-sulfonyl)-propionamide], with “agonistic activity”.
With `COc1ccc(S(=O)(=O)C(C)(C)C(=O)Nc2cc(-c3cccs3)nn2C)cc1` [2-(4-Methoxy-benzenesulfonyl)-2-methyl-N-(2-methyl-5-thiophen-2-yl-2H-pyrazol-3-yl)-propionamide] the entry was “agonistic activity”; with `CC(C)(C(=O)Nc1cccc2ccccc12)S(=O)(=O)c1ccc(S(C)(=O)=O)cc1` [2-(4-Methanesulfonyl-benzenesulfonyl)-2-methyl-N-naphthalen-1-yl-propionamide], “agonistic activity”; with `CC(C)(C)c1cc(NC(=O)C(C)(C)S(=O)(=O)c2ccc(Cl)cc2)no1` [N-(5-tert-Butyl-isoxazol-3-yl)-2-(4-chloro-benzenesulfonyl)-2-methyl-propionamide], “agonistic activity”.
With `CC(C)(C(=O)Nc1nc(C(F)(F)F)cs1)S(=O)(=O)c1ccc(S(C)(=O)=O)cc1` [2-methyl-2-{[4-(methylsulfonyl)phenyl]sulfonyl}-N-[4-(trifluoromethyl)-1,3-thiazol-2-yl]propanamide] the entry was “agonistic activity”; with `CC(C)(C(=O)Nc1nc(-c2ccccn2)cs1)S(=O)(=O)c1ccc(Cl)cc1` [2-(4-Chloro-benzenesulfonyl)-2-methyl-N-(4-pyridin-2-yl-thiazol-2-yl)-propionamide], “agonistic activity”; with `CC(C)(C)c1csc(NC(=O)C(C)(C)S(=O)(=O)c2cc(F)ccc2F)n1` [N-(4-tert-Butyl-thiazol-2-yl)-2-(2,5-difluoro-benzenesulfonyl)-2-methyl-propionamide], “agonistic activity”.
As for `Cc1cnc(NC(=O)C(C)(C)S(=O)(=O)c2ccc(C(F)(F)F)cn2)s1` [2-Methyl-N-(5-methyl-thiazol-2-yl)-2-(5-trifluoromethyl-pyridine-2-sulfonyl)-propionamide], the agonistic activity entry is recorded as “agonistic activity”.
Then `CC(C)(C)c1cc(NC(=O)C(C)(C)S(=O)(=O)c2ccc(F)c(Cl)c2)no1` [N-(5-tert-Butyl-isoxazol-3-yl)-2-(3-chloro-4-fluoro-benzenesulfonyl)-2-methyl-propionamide], with “agonistic activity”; and `CCc1sc(NC(=O)C(C)(C)S(=O)(=O)c2ccc(Cl)cc2F)nc1-c1ccccc1` [2-(4-Chloro-2-fluoro-benzenesulfonyl)-N-(5-ethyl-4-phenyl-thiazol-2-yl)-2-methyl-propionamide], with “agonistic activity”.
Then `CC(C)(C(=O)Nc1nc(-c2ccc(F)cc2)cs1)S(=O)(=O)c1ccc(Cl)cc1` [2-[(4-chlorophenyl)sulfonyl]-N-[4-(4-fluorophenyl)-1,3-thiazol-2-yl]-2-methylpropanamide], with “agonistic activity”.
`CC(C)C(C(=O)Nc1nc(C(C)(C)C)cs1)S(=O)(=O)c1ccc(C(F)(F)F)cc1` (stereo not drawn) [N-(4-tert-Butyl-thiazol-2-yl)-3-methyl-2-(4-trifluoromethyl-benzenesulfonyl)-butyramide]: the agonistic activity result is given as “agonistic activity”.
With `CC(C)(C(=O)Nc1cnc2ccccc2c1)S(=O)(=O)c1ccc(C(F)(F)F)nc1` [2-methyl-N-quinolin-3-yl-2-{[6-(trifluoromethyl)pyridin-3-yl]sulfonyl}propanamide] the entry was “agonistic activity”; with `COc1ccc(S(=O)(=O)C(C)(C)C(=O)Nc2nc(C3CCCCC3)cs2)cc1` [N-(4-cyclohexyl-1,3-thiazol-2-yl)-2-[(4-methoxyphenyl)sulfonyl]-2-methylpropanamide], “agonistic activity”; with `CC(C)(C(=O)Nc1nnc(-c2ccccc2)s1)S(=O)(=O)c1ccc(Cl)cc1` [2-(4-Chloro-benzenesulfonyl)-2-methyl-N-(5-phenyl-[1,3,4]thiadiazol-2-yl)-propionamide], “agonistic activity”.
Then `Cc1sc(NC(=O)C(C)(C)S(=O)(=O)c2ccc(S(C)(=O)=O)cc2)nc1-c1ccccc1` [2-methyl-N-(5-methyl-4-phenyl-1,3-thiazol-2-yl)-2-{[4-(methylsulfonyl)phenyl]sulfonyl}propanamide], with “agonistic activity”; and `CC(C)(C(=O)Nc1ccc(C(F)(F)F)c(F)c1)S(=O)(=O)c1ccc(Cl)cc1` [2-[(4-chlorophenyl)sulfonyl]-N-[3-fluoro-4-(trifluoromethyl)phenyl]-2-methylpropanamide], with “agonistic activity”; and `CC(C)(C(=O)Nc1cccc(C(F)(F)F)c1)S(=O)(=O)c1ccc(S(C)(=O)=O)cc1` [2-methyl-2-{[4-(methylsulfonyl)phenyl]sulfonyl}-N-[3-(trifluoromethyl)phenyl]propanamide], with “agonistic activity”.
With `Cc1ccc(S(=O)(=O)C(C)(C)C(=O)Nc2cc(C(C)(C)C)on2)cc1` [N-(5-tert-Butyl-isoxazol-3-yl)-2-methyl-2-(toluene-4-sulfonyl)-propionamide] the entry was “agonistic activity”.
In the case of `CC(C)(C)c1cc(NC(=O)C(C)(C)S(=O)(=O)c2ccc(C(F)(F)F)nc2)[nH]n1` [N-(5-tert-Butyl-2H-pyrazol-3-yl)-2-methyl-2-(6-trifluoromethyl-pyridine-3-sulfonyl)-propionamide], the agonistic activity result was “agonistic activity”.
Consider `CC(C)(C(=O)Nc1ccc(C(F)(F)F)cn1)S(=O)(=O)c1ccc(Cl)cc1` [2-(4-Chloro-benzenesulfonyl)-2-methyl-N-(5-trifluoromethyl-pyridin-2-yl)-propionamide], for which the agonistic activity entry was “agonistic activity”.
As for `Cc1nc(NC(=O)C(C)(C)S(=O)(=O)c2ccc(C(F)(F)F)nc2)sc1C(C)(C)C` [N-(5-tert-Butyl-4-methyl-thiazol-2-yl)-2-methyl-2-(6-trifluoromethyl-pyridine-3-sulfonyl)-propionamide], the agonistic activity result was “agonistic activity”.
With `CC(C)(C(=O)Nc1nc2c(F)cccc2s1)S(=O)(=O)c1ccc(Cl)cc1` [2-[(4-chlorophenyl)sulfonyl]-N-(4-fluoro-1,3-benzothiazol-2-yl)-2-methylpropanamide] the entry was “agonistic activity”; with `CC(C)(C(=O)Nc1cccc(C(F)(F)F)c1)S(=O)(=O)c1ccc(C(F)(F)F)nc1` [2-methyl-N-[3-(trifluoromethyl)phenyl]-2-{[6-(trifluoromethyl)pyridin-3-yl]sulfonyl}propanamide], “agonistic activity”.
With `CC(C)(C)c1cc(NC(=O)C(C)(C)S(=O)(=O)c2ccc(C(F)(F)F)cc2)on1` [N-(3-tert-Butyl-isoxazol-5-yl)-2-methyl-2-(4-trifluoromethyl-benzenesulfonyl)-propionamide] the entry was “agonistic activity”; with `CC(C)(C)c1csc(NC(=O)C(C)(C)S(=O)(=O)c2ccc(Cl)nc2)n1` [N-(4-tert-Butyl-thiazol-2-yl)-2-(6-chloro-pyridine-3-sulfonyl)-2-methyl-propionamide], “agonistic activity”; with `CC(C)(C)c1cc(NC(=O)C(C)(C)S(=O)(=O)c2cc(Cl)c(Cl)s2)no1` [N-(5-tert-Butyl-isoxazol-3-yl)-2-(4,5-dichloro-thiophene-2-sulfonyl)-2-methyl-propionamide], “agonistic activity”.
With `Cn1nc(-c2ccccc2)cc1NC(=O)C(C)(C)S(=O)(=O)c1ccc(S(C)(=O)=O)cc1` [2-methyl-N-(1-methyl-3-phenyl-1H-pyrazol-5-yl)-2-{[4-(methylsulfonyl)phenyl]sulfonyl}propanamide] the entry was “agonistic activity”; with `CC(C)(C(=O)Nc1ccc(Cl)cc1)S(=O)(=O)c1ccc(Cl)cc1` [2-(4-Chloro-benzenesulfonyl)-N-(4-chloro-phenyl)-2-methyl-propionamide], “agonistic activity”.
For the compound `CC(C)(C)c1coc(NC(=O)C(C)(C)S(=O)(=O)c2ccc(Cl)cc2)n1` [N-(4-tert-Butyl-oxazol-2-yl)-2-(4-chloro-benzenesulfonyl)-2-methyl-propionamide], the agonistic activity entry is “agonistic activity”.
With `CC(C)(C(=O)Nc1cccc(Cl)c1)S(=O)(=O)c1ccc(Cl)cc1` [2-(4-Chloro-benzenesulfonyl)-N-(3-chloro-phenyl)-2-methyl-propionamide] the entry was “agonistic activity”; with `Cc1cc(NC(=O)C(C)(C)S(=O)(=O)c2ccc(Cl)cc2)n(-c2ccccc2)n1` [2-(4-Chloro-benzenesulfonyl)-2-methyl-N-(5-methyl-2-phenyl-2H-pyrazol-3-yl)-propionamide], “agonistic activity”.
Then `CC(C)(C)c1cc(NC(=O)C2(S(=O)(=O)c3ccc(Cl)cc3)CC2)no1` [1-(4-Chloro-benzenesulfonyl)-cyclopropanecarboxylic acid (5-tert-butyl-isoxazol-3-yl)-amide], with “agonistic activity”.
Regarding `CC(C)(C)Cc1cc(NC(=O)C(C)(C)S(=O)(=O)c2ccc(C(F)(F)F)nc2)on1` [N-[3-(2,2-dimethylpropyl)isoxazol-5-yl]-2-methyl-2-{[6-(trifluoromethyl)pyridin-3-yl]sulfonyl}propanamide], the agonistic activity entry is recorded as “agonistic activity”.

These data come from patent US8299111B2, “Compounds which modulate the CB2 receptor” (Boehringer Ingelheim International GmbH, priority 2006, dated 2012).
